Where “and” joins values, the source holds several entries; their conditions need not be identical. Equal values may be shown once.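 Grown in 96-well plates, cells were treated for 48 hours with each compound at five concentrations. Insufficient inhibition: endpoint recorded as highest concentration tested. The concentration for 50% growth inhibition is given as GI50. TGI denotes the concentration required for complete inhibition of growth.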 Bounds are passed on as bounds.

What all share (assay): NCI-60 cell line screen, 48 h
In assay [1] the test system is DLD-1 colon.
Assay [2] has as its system K-562 leukemia.
For assay [3], the system named is OVCAR-4 ovarian.
Assay [4] has as its system RXF 393 renal.
For assay [5], the system named is SF-539 CNS.
Assay [6] concerns SW-620 colon.
For assay [7], the system named is UACC-257 melanoma.
Assay [8] deals with UO-31 renal.
The subject of assay [9] is SK-OV-3 ovarian.
Assay [10] concerns DU-145 prostate.

In the case of `COC(=O)CC1NC(=O)C1C(C)(OC)OC` (centres undefined), the TGI in assay [1], in assay [2], in assay [3], in [4], in assay [5] and in assay [6] was greater than 100 µM each time. In addition, the TGI in [7] and in [8] was greater than 100 µM each time.
As for `CN(C)CCNC(=O)c1cccc2[nH]c(-c3ccc(Cl)cc3)nc12`, the TGI was found to be 24.5 µM in assay [1]; 12.6 µM in assay [2]; 21.2 µM in assay [3]; 21.3 µM in [4]; 16.9 µM in assay [5]; 25.1 µM in assay [9]. Besides, the TGI is 18.3 µM in assay [6], 20.4 µM in assay [7] and 12.1 µM in [8].
Take `Cc1cc(=O)[nH]c(NNC(C#N)c2ccc(N(C)C)cc2)n1` (centres undefined): the TGI in assay [1], in assay [2], in assay [3], in assay [4], in [5] and in assay [9] was greater than 100 µM each time. In addition, the TGI in [6], in assay [7] and in assay [8] was greater than 100 µM throughout.
Turning to `O=C1NC2OC(CO)C(O)C(O)C2O1` (centres undefined), the TGI in assay [1], in assay [2], in assay [3], in [5], in [9] and in [6] was greater than 100 µM in each case. In addition, the TGI in assay [7] and in assay [8] was greater than 100 µM in each case.
As for `NC(CS)C(=O)NCCNc1ccc(NCCNC(=O)C(N)CS)c2c1C(=O)c1c(O)ccc(O)c1C2=O` (centres undefined), the GI50 in assay [1] is 0.0638 µM; in assay [2], 0.0192 µM; in assay [3] it was 0.109 µM; in assay [4], 0.103 µM; in [9], 0.0165 µM; in [6], 0.0218 µM. For the same molecule, the GI50 in assay [8] was 0.0598 µM. In addition, the TGI in [1] was 1.03 µM and 0.762 µM; in [10] it was 0.123 µM; in [2], 0.614 µM and 0.145 µM; in assay [3] it was 0.847 µM and 0.401 µM; in assay [4], 0.554 µM and 0.455 µM; in assay [5], 0.728 µM and 0.193 µM. Moreover, the TGI in assay [6] is 1.24 µM and 1.01 µM; in assay [7], 2.41 µM and 2.29 µM; in assay [8], 0.477 µM and 0.316 µM.
Turning to `CC1(C)OC2OC(C(=O)c3ccccc3)C3OC(C)(C)OC3C2O1` (centres undefined), the TGI in assay [10], in assay [2], in assay [3], in [4], in assay [5] and in assay [9] was greater than 100 µM in each case. In addition, the TGI in assay [6], in assay [7] and in assay [8] was greater than 100 µM throughout.
For the molecule `COc1ccc(N2C(=O)C3C=CC(n4[nH]c(=O)n(Cc5ccccc5)c4=O)CC3C2=O)cc1` (centres undefined), the TGI in assay [1], in [2], in [4], in assay [5], in [9] and in assay [6] was greater than 100 µM each time. For the same molecule, the TGI in assay [7] and in [8] was greater than 100 µM throughout.
Turning to `CCOP(=O)(OCC)C(C)(CC)/N=C(\N)NC#N` (centres undefined), the TGI in assay [10], in [2], in assay [3], in assay [4], in assay [5] and in assay [9] was greater than 100 µM in each case. The TGI in assay [6], in [7] and in [8] was greater than 100 µM throughout.
Turning to `COc1ccc(/C=C(\C2=NC(=O)CS2)c2nc3ccccc3[nH]2)cc1`, the TGI in assay [1] is greater than 100 µM; in [2], greater than 100 µM; in [3], greater than 100 µM; in [4] it was 6.81 µM; in [5], 41.9 µM; in [9], 60 µM. Moreover, the TGI in assay [6], in [7] and in assay [8] was greater than 100 µM in each case.
In the case of `O=C1C=CC(=O)[C@H]2C3C=CC(C4C3C3(Cl)C(Cl)=C(Cl)[C@]4(Cl)C3(Cl)Cl)[C@@H]12` (some centres undefined), the TGI in [10] is 21.3 µM; in assay [2], 20.4 µM; in assay [3], 16.2 µM; in assay [4], 13.8 µM; in [5], 17.9 µM; in assay [9], 27.3 µM. In addition, the TGI in [6] was 23.2 µM; in assay [7], 6.23 µM; in assay [8], 22.1 µM.
Turning to `O=C1C(=O)N(C23CC4CC(CC(C4)C2)C3)C(=S)N1c1ccccc1`, the TGI in [10], in [2], in [3], in assay [4], in [5] and in [9] was greater than 100 µM throughout. The TGI in [6], in assay [7] and in assay [8] was greater than 100 µM in each case.
As for `CCOC(=O)C1=C(O)c2ccc(OC)cc2C(=O)C1=O`, the TGI in [1], in assay [2], in [3], in assay [4], in assay [5] and in assay [9] was greater than 100 µM in each case. Moreover, the TGI in assay [6], in [7] and in [8] was greater than 100 µM throughout.
In the case of `Nc1nc(N)c2nc(CNc3ccc(C(=O)NC(CCNC(=O)c4ccccc4C(=O)O)C(=O)O)cc3)cnc2n1` (centres undefined), the TGI in assay [10], in assay [2], in [3], in assay [4], in assay [9] and in [6] was greater than 100 µM in each case. Further, the TGI in assay [7] and in assay [8] was greater than 100 µM in each case. Besides, the GI50 in [4] is 0.967 µM; in assay [5], 0.0574 µM; in assay [6] it was 0.00628 µM; in [8], 0.04 µM.
Take `N#CCN1CCCN(CC#N)CCN(CC#N)CCCN(CC#N)CC1`: the TGI in assay [10], in assay [2], in assay [3], in [4], in assay [5] and in assay [9] was greater than 100 µM in each case. Moreover, the TGI in [6], in [7] and in assay [8] was greater than 100 µM in each case.
Take `CN(C)C1(c2cc3ccccc3s2)CCCCC1`: the TGI in assay [10] is greater than 100 µM; in [2], 65.8 µM; in assay [3], greater than 100 µM; in assay [4], 84.6 µM; in assay [5], greater than 100 µM; in [9], greater than 100 µM. The results for the TGI in assay [6], in assay [7] and in [8] were greater than 100 µM, 80.4 µM and greater than 100 µM, respectively.
For `CC1=C(C(=O)NCCCN(CCO)CCO)CC(C(=O)NCCCN(CCO)CCO)=C(C)N1`, the TGI in assay [10], in assay [2], in assay [3], in [4], in assay [5] and in assay [9] was greater than 100 µM in each case. In addition, the TGI in assay [6], in assay [7] and in [8] was greater than 100 µM in each case.
`COc1cccc2c1C(=O)c1c(O)c3c(c(O)c1C2=O)CC(O)(C(C)=O)CC3O` (centres undefined): the TGI in assay [1] stood at 40.9 µM; in assay [2], 39.3 µM; in [3] it was 19.6 µM; in assay [4], 18.5 µM; in [5], 21.3 µM; in assay [9] it was 36.9 µM. In addition, the values for the TGI in assay [6], in assay [7] and in assay [8] were 32.7 µM, 32.7 µM and 28.8 µM, respectively.
In the case of `O=P(Nc1cccc(Cl)c1)(Oc1ccccc1)N(CCCl)CCCl` (centres undefined), the TGI was 30.5 µM in [1]; greater than 100 µM in assay [2]; 25.4 µM in [3]; 31.2 µM in assay [5]; greater than 100 µM in assay [9]; 30.7 µM in assay [6]. In addition, the TGI in assay [7] was 27.2 µM; in assay [8] it was greater than 100 µM.
`O=C1C(Cl)C(c2ccc([N+](=O)[O-])cc2)N1n1cnc2ccccc2c1=O` (centres undefined): the TGI in assay [1] was greater than 100 µM; in assay [2], greater than 100 µM; in assay [3] it was 25.2 µM; in [4] it was 72.1 µM; in assay [9] it was 50.3 µM; in assay [6] it was greater than 100 µM. The TGI in assay [7] and in [8] was greater than 100 µM each time.
Take `COc1ccc(OC)c(-c2cc(=O)c3cc4c(cc3[nH]2)OCO4)c1`: the TGI in assay [1] is greater than 100 µM; in assay [2], greater than 100 µM; in assay [3], greater than 100 µM; in assay [4], 16.5 µM; in [5], 16.2 µM; in assay [9], 17.7 µM. Also, the TGI in assay [6], in [7] and in [8] was greater than 100 µM in each case.
Regarding `CN(C)CCCN=c1c2ccccc2n(C)c2[nH]c(=O)n(C)c(=O)c12`, the TGI in assay [10] is greater than 79 µM; in assay [2], greater than 52 µM; in assay [3], 36.2 µM; in assay [4] it was 30.1 µM; in [5], 22.4 µM; in [9], 50.3 µM. Also, the TGI in assay [6] worked out at 28.1 µM; in assay [7], 13.8 µM; in assay [8], 27.2 µM.
As for `COc1cc(C2c3cc4c(cc3OC(NNc3ccccc3)C2C)OCO4)cc(OC)c1O` (centres undefined), the TGI in [10] amounted to 17.5 µM; in [2] it was 12.4 µM; in assay [3], 38.2 µM; in assay [4], 13.7 µM; in [5], 2.98 µM; in [9] it was 22.7 µM. For the same molecule, the results for the TGI in assay [6], in [7] and in assay [8] were 21 µM, 20 µM and 13.3 µM, respectively.
As for `CC(=O)OC12OC(C)(C3C(=O)N(c4ccccc4)C(=O)C31)N(c1ccccc1)C2=O` (centres undefined), the TGI in [10], in [2], in assay [3], in assay [4], in assay [5] and in assay [9] was greater than 100 µM throughout. Besides, the TGI in [6], in assay [7] and in [8] was greater than 100 µM throughout.
Turning to `Nc1ccn(CCCC(c2ccccc2)P(=O)(O)O)c(=O)n1` (centres undefined), the TGI in assay [1], in assay [2], in [5], in [9], in assay [6] and in [7] was greater than 100 µM each time. Besides, the TGI in assay [8] is greater than 100 µM.

The values above are taken from PubChem BioAssay (NCI).
